In patent publication US9738634B2, “Heterocyclic amide compound and herbicide” (SYNGENTA PARTICIPATIONS AG, priority 2013, dated 2017):

Columns and labels:
Assay type in all cases: in vivo
Conditions in all cases: treatment dosage 320 g/ha
directly sown rice [1] = test: Test Example 3: soil treatment, effect on crop; b: directly sown rice
Method in brief: (§1)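 Crop and weed responses were judged three weeks after a uniform surface spray of the water-diluted emulsion at the given g/ha rate. Seeds sat beneath about 1.5 cm of sterilized diluvial soil, and boxes stood in a greenhouse at 25 to 30° C.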

beet [2] = test: Test Example 3: soil treatment, effect on crop; f: beet
Method in brief: as §1

fig-leafed goosefoot [3] = test: Test Example 3: weedkilling efficacy through soil treatment; M: fig-leafed goosefoot
Method in brief: as §1

barnyard grass [4] = test: Test Example 4: weedkilling efficacy by foliar treatment; F: barnyard grass
Method in brief: (§2)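 Seeds are spot-sown into sterilized diluvial soil and covered with about 1.5 cm of soil. After 14 days' greenhouse growth at 25 to 30° C, plants are sprayed on stems and leaves with diluted emulsion at the stated g/ha rate, then scored at 3 weeks.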

beet [5] = test: Test Example 4: foliar treatment, effect on crop; f: beet
Method in brief: as §2

wheat [6] = test: Test Example 3: soil treatment, effect on crop; e: wheat
Method in brief: as §1

black-grass [7] = test: Test Example 3: weedkilling efficacy through soil treatment; H: black-grass
Method in brief: as §1

chickweed [8] = test: Test Example 3: weedkilling efficacy through soil treatment; N: chickweed
Method in brief: as §1

chickweed [9] = test: Test Example 4: weedkilling efficacy by foliar treatment; N: chickweed
Method in brief: as §2

catchweed [10] = test: Test Example 4: weedkilling efficacy by foliar treatment; O: catchweed
Method in brief: as §2

soybean [11] = test: Test Example 4: foliar treatment, effect on crop; d: soybean
Method in brief: as §2

corn [12] = test: Test Example 4: foliar treatment, effect on crop; c: corn
Method in brief: as §2

black-grass [13] = test: Test Example 4: weedkilling efficacy by foliar treatment; H: black-grass
Method in brief: as §2

oval-leafed pondweed [14] = test: Test Example 2: weedkilling efficacy, growth period weed treatment in the submerged state; C: oval-leafed pondweed
Method in brief: (§3)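 Seedlings at 1-2 leaves in 4 cm-deep submerged alluvial soil received emulsion formulations on the water surface, dosed per hectare; effects were judged 3 weeks on.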

Indian mallow [15] = test: Test Example 4: weedkilling efficacy by foliar treatment; K: Indian mallow
Method in brief: as §2

bulrush [16] = test: Test Example 2: weedkilling efficacy, growth period weed treatment in the submerged state; B: bulrush
Method in brief: as §3

green foxtail [17] = test: Test Example 4: weedkilling efficacy by foliar treatment; E: green foxtail
Method in brief: as §2

birds-eye speedwell = test: Test Example 4: weedkilling efficacy by foliar treatment; p: birds-eye speedwell
Method in brief: as §2

wild oat [18] = test: Test Example 4: weedkilling efficacy by foliar treatment; G: wild oat
Method in brief: as §2

transplanted rice = test: Test Example 1: preemergent weed treatment in the submerged state, effect on crop; a: transplanted rice
Method in brief: (§4)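 Pre-emergence paddy test: weed seeds sown in submerged alluvial soil (4 cm water), 2.5-leaf rice transplanted, water-diluted emulsion applied to water surface at sowing at stated g/ha. Scored at 3 weeks, greenhouse 25–30 °C.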

crabgrass [19] = test: Test Example 3: weedkilling efficacy through soil treatment; D: crabgrass
Method in brief: as §1

redroot pigweed [20] = test: Test Example 3: weedkilling efficacy through soil treatment; L: redroot pigweed
Method in brief: as §1

fig-leafed goosefoot [21] = test: Test Example 4: weedkilling efficacy by foliar treatment; M: fig-leafed goosefoot
Method in brief: as §2

corn [22] = test: Test Example 3: soil treatment, effect on crop; c: corn
Method in brief: as §1

wild oat [23] = test: Test Example 3: weedkilling efficacy through soil treatment; G: wild oat
Method in brief: as §1

Italian ryegrass [24] = test: Test Example 3: weedkilling efficacy through soil treatment; I: Italian ryegrass
Method in brief: as §1

Italian ryegrass [25] = test: Test Example 4: weedkilling efficacy by foliar treatment; I: Italian ryegrass
Method in brief: as §2

Indian mallow [26] = test: Test Example 3: weedkilling efficacy through soil treatment; K: Indian mallow
Method in brief: as §1

soybean [27] = test: Test Example 3: soil treatment, effect on crop; d: soybean
Method in brief: as §1

common wind-grass [28] = test: Test Example 3: weedkilling efficacy through soil treatment; J: common wind-grass
Method in brief: as §1

redroot pigweed [29] = test: Test Example 4: weedkilling efficacy by foliar treatment; L: redroot pigweed
Method in brief: as §2

crabgrass [30] = test: Test Example 4: weedkilling efficacy by foliar treatment; D: crabgrass
Method in brief: as §2

wheat [31] = test: Test Example 4: foliar treatment, effect on crop; e: wheat
Method in brief: as §2

rapeseed [32] = test: Test Example 3: soil treatment, effect on crop; g: rapeseed
Method in brief: as §1

green foxtail [33] = test: Test Example 3: weedkilling efficacy through soil treatment; E: green foxtail
Method in brief: as §1

barnyard grass [34] = test: Test Example 1: weedkilling efficacy, preemergent weed treatment in the submerged state; A: barnyard grass
Method in brief: as §4

barnyard grass [35] = test: Test Example 2: weedkilling efficacy, growth period weed treatment in the submerged state; A: barnyard grass
Method in brief: as §3

oval-leafed pondweed [36] = test: Test Example 1: weedkilling efficacy, preemergent weed treatment in the submerged state; C: oval-leafed pondweed
Method in brief: as §4

barnyard grass [37] = test: Test Example 3: weedkilling efficacy through soil treatment; F: barnyard grass
Method in brief: as §1

catchweed [38] = test: Test Example 3: weedkilling efficacy through soil treatment; O: catchweed
Method in brief: as §1

common wind-grass [39] = test: Test Example 4: weedkilling efficacy by foliar treatment; J: common wind-grass
Method in brief: as §2

rapeseed [40] = test: Test Example 4: foliar treatment, effect on crop; g: rapeseed
Method in brief: as §2

directly sown rice [41] = test: Test Example 4: foliar treatment, effect on crop; b: directly sown rice
Method in brief: as §2

bulrush [42] = test: Test Example 1: weedkilling efficacy, preemergent weed treatment in the submerged state; B: bulrush
Method in brief: as §4

CC1=C(c2ccccc2)C(=O)N(C(C)(C)C(=O)Nc2cc(-c3ccc(F)nc3)ccn2)CO1 [B-5-01]
b (directly sown rice) effect on crop grade (directly sown rice [1]): 0 (weed kill ratio 5% or less (practically no effect))
f (beet) effect on crop grade (beet [2]): 0 (weed kill ratio 5% or less (practically no effect))
M (fig-leafed goosefoot) weedkilling efficacy grade (fig-leafed goosefoot [3]): 0 (weed kill ratio 5% or less (practically no effect))
F (barnyard grass) weedkilling efficacy grade (barnyard grass [4]): 0 (weed kill ratio 5% or less (practically no effect))
f (beet) effect on crop grade (beet [5]): 0 (weed kill ratio 5% or less (practically no effect))
e (wheat) effect on crop grade (wheat [6]): 0 (weed kill ratio 5% or less (practically no effect))
H (black-grass) weedkilling efficacy grade (black-grass [7]): 0 (weed kill ratio 5% or less (practically no effect))
N (chickweed) weedkilling efficacy grade (chickweed [8]): 0 (weed kill ratio 5% or less (practically no effect))
N (chickweed) weedkilling efficacy grade (chickweed [9]): 0 (weed kill ratio 5% or less (practically no effect))
O (catchweed) weedkilling efficacy grade (catchweed [10]): 1 (weed kill ratio 5% or more, less than 20%)
d (soybean) effect on crop grade (soybean [11]): 0 (weed kill ratio 5% or less (practically no effect))
c (corn) effect on crop grade (corn [12]): 0 (weed kill ratio 5% or less (practically no effect))
H (black-grass) weedkilling efficacy grade (black-grass [13]): 0 (weed kill ratio 5% or less (practically no effect))
C (oval-leafed pondweed) weedkilling efficacy grade (oval-leafed pondweed [14]): 4 (weed kill ratio 70% or more, less than 90%)
K (Indian mallow) weedkilling efficacy grade (Indian mallow [15]): 0 (weed kill ratio 5% or less (practically no effect))
B (bulrush) weedkilling efficacy grade (bulrush [16]): 3 (weed kill ratio 40% or more, less than 70%)
E (green foxtail) weedkilling efficacy grade (green foxtail [17]): 0 (weed kill ratio 5% or less (practically no effect))
P (birds-eye speedwell) weedkilling efficacy grade (birds-eye speedwell): 3 (weed kill ratio 40% or more, less than 70%)
G (wild oat) weedkilling efficacy grade (wild oat [18]): 0 (weed kill ratio 5% or less (practically no effect))
a (transplanted rice) effect on crop grade (transplanted rice): 0 (weed kill ratio 5% or less (practically no effect))
D (crabgrass) weedkilling efficacy grade (crabgrass [19]): 0 (weed kill ratio 5% or less (practically no effect))
L (redroot pigweed) weedkilling efficacy grade (redroot pigweed [20]): 0 (weed kill ratio 5% or less (practically no effect))
M (fig-leafed goosefoot) weedkilling efficacy grade (fig-leafed goosefoot [21]): 3 (weed kill ratio 40% or more, less than 70%)
c (corn) effect on crop grade (corn [22]): 0 (weed kill ratio 5% or less (practically no effect))
G (wild oat) weedkilling efficacy grade (wild oat [23]): 0 (weed kill ratio 5% or less (practically no effect))
I (Italian ryegrass) weedkilling efficacy grade (Italian ryegrass [24]): 0 (weed kill ratio 5% or less (practically no effect))
I (Italian ryegrass) weedkilling efficacy grade (Italian ryegrass [25]): 0 (weed kill ratio 5% or less (practically no effect))
K (Indian mallow) weedkilling efficacy grade (Indian mallow [26]): 0 (weed kill ratio 5% or less (practically no effect))
d (soybean) effect on crop grade (soybean [27]): 0 (weed kill ratio 5% or less (practically no effect))
J (common wind-grass) weedkilling efficacy grade (common wind-grass [28]): 4 (weed kill ratio 70% or more, less than 90%)
L (redroot pigweed) weedkilling efficacy grade (redroot pigweed [29]): 0 (weed kill ratio 5% or less (practically no effect))
D (crabgrass) weedkilling efficacy grade (crabgrass [30]): 0 (weed kill ratio 5% or less (practically no effect))
e (wheat) effect on crop grade (wheat [31]): 0 (weed kill ratio 5% or less (practically no effect))
g (rapeseed) effect on crop grade (rapeseed [32]): 0 (weed kill ratio 5% or less (practically no effect))
E (green foxtail) weedkilling efficacy grade (green foxtail [33]): 2 (weed kill ratio 20% or more, less than 40%)
A (barnyard grass) weedkilling efficacy grade (barnyard grass [34]): 4 (weed kill ratio 70% or more, less than 90%)
A (barnyard grass) weedkilling efficacy grade (barnyard grass [35]): 3 (weed kill ratio 40% or more, less than 70%)
C (oval-leafed pondweed) weedkilling efficacy grade (oval-leafed pondweed [36]): 4 (weed kill ratio 70% or more, less than 90%)
F (barnyard grass) weedkilling efficacy grade (barnyard grass [37]): 0 (weed kill ratio 5% or less (practically no effect))
O (catchweed) weedkilling efficacy grade (catchweed [38]): 0 (weed kill ratio 5% or less (practically no effect))
J (common wind-grass) weedkilling efficacy grade (common wind-grass [39]): 0 (weed kill ratio 5% or less (practically no effect))
g (rapeseed) effect on crop grade (rapeseed [40]): 0 (weed kill ratio 5% or less (practically no effect))
b (directly sown rice) effect on crop grade (directly sown rice [41]): 0 (weed kill ratio 5% or less (practically no effect))
B (bulrush) weedkilling efficacy grade (bulrush [42]): 5 (weed kill ratio 90% or more, (practically complete withering))
